Consider 1 compound from ChEMBL document CHEMBL5385848, “Discovery of novel hydroxyamidine based indoleamine 2,3-dioxygenase 1 (IDO1) and thioredoxin reductase 1 (TrxR1) dual inhibitors” (Eur J Med Chem, 2023).

Each structure is given as a SMILES string. Activity calls are given as the source filed them. No cut-off for these calls is given here.

The test system of series [1] is HCT-116. Briefly: Induction of apoptosis in human HCT-116 cells assessed as apoptotic rate at 10 uM pretreated with NAC incubated for 24 hrs by Annexin-V/PI staining based flow cytometry analysis (reference value: 9.8 +/- 1.59%). The series is classed as functional. (A flow cytometer gives signals particle by particle.)
The test system of series [2] is HCT-116. The series is described as follows: Induction of apoptosis in human HCT-116 cells assessed as apoptotic rate at 2.5 uM pretreated with NAC incubated for 24 hrs by Annexin-V/PI staining based flow cytometry analysis (reference value: 9.8 +/- 1.59%). The series is classed as functional.
Series [3] concerns the target T1, Thioredoxin reductase 3 (Homo sapiens, UniProt Q86VQ6).
T1 sequence (Q86VQ6 whole entry): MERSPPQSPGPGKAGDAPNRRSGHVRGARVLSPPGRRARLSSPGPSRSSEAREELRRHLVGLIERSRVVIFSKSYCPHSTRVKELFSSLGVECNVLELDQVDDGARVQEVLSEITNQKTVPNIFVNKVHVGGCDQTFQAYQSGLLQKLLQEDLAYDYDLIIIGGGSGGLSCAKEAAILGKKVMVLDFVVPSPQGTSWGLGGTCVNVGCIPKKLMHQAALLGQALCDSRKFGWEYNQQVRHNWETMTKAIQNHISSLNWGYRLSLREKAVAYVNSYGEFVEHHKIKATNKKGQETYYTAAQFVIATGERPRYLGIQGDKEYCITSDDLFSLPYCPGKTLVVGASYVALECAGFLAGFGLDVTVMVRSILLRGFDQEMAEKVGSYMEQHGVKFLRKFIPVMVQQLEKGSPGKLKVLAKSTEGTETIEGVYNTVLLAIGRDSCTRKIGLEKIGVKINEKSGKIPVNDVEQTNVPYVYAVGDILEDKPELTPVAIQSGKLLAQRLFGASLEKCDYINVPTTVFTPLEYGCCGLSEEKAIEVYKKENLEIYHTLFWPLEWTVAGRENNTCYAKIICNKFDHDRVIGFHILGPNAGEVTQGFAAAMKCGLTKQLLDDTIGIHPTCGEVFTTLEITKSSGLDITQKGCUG
The series is described as follows: Inhibition of TrxR3 (unknown origin) incubated for 1 hr in presence of NADPH by microplate reader analysis.

Series [4] relates to HCT-116. The series is described as follows: Cytotoxicity against human HCT-116 cells transfected with TrxR1 siRNA incubated for 24 hrs by CCK-8 assay (reference value: 3.49 +/- 0.28 uM). The series is classed as functional, cell-based. As to conditions: HCT-116, 24 h. (In general: Tetrazolium dyes change colour on reduction, which living cells bring about.)
Series [5] deals with Indoleamine 2,3-dioxygenase 1 (Mus musculus) (UniProt P28776). Briefly: In vivo inhibition of IDO1 in C57BL/6 mouse assessed as reduction in plasma Kyn level at 60 mg/kg, po administered once daily by LC-MS/MS analysis. It is filed as functional, organism-based.
The nature of series [6]: Toxicity in athymic BALB/c mouse xenografted with human HCT-116 cells assessed as effect on body weight at 15 to 60 mg/kg, ig administered daily for 28 days and measured every 4 days. It is filed as organism-based. The note with it: in vivo, po, 672 h, dose 15-60 mg/kg, time 28 day.
Series [7] is described as follows: Toxicity in athymic BALB/c mouse xenografted with human HCT-116 cells assessed as change in spleen morphology at 15 to 60 mg/kg, ig administered daily for 28 days and measured every 4 days. It is filed as organism-based. The note with it: in vivo, po, 672 h, dose 15-60 mg/kg, time 28 day. For orientation: Xenograft models place foreign cells or tissue in a host animal.

Indoleamine 2,3-dioxygenase 1 (Mus musculus), sequence (P28776 whole entry, looked up): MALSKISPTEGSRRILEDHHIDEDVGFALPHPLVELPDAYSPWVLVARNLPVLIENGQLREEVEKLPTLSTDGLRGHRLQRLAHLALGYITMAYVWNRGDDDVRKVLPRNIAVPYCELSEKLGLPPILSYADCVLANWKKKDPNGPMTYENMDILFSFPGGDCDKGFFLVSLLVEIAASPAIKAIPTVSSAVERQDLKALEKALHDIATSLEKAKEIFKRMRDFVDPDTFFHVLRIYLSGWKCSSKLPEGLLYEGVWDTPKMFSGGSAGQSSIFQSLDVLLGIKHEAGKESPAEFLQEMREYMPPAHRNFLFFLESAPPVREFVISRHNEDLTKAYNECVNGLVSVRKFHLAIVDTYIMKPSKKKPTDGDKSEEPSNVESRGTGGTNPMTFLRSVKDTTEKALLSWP

As a reminder, the IC50 is the concentration needed to halve the response being measured. `O=C(Cc1ccc(O)cc1)Nc1nnc(CCCNc2nonc2/C(=N\O)Nc2ccc(F)c(Br)c2)s1`: the Activity in series [1] is on record as 15.21%; in series [2], 10.37%; in series [6] it was “Non-Toxic”; in series [7], “Non-Toxic”. The half-maximal inhibitory concentration (IC50) was > 500000 nM in series [3] and 1670 nM in series [4]. The outcome in series [5] was Active.
